Data published in ChEMBL document CHEMBL1909046, “DrugMatrix in vitro pharmacology data”.

How the values were obtained:
[1] = molecular target: Beta-3 adrenergic receptor (Homo sapiens, UniProt P13945); test: DRUGMATRIX: Adrenergic beta3 radioligand binding (ligand: [125I] Cyanopindolol); assay type: cell membranes, Membrane; details: hek293; Not Active = under 50% inhibition at 10 µM
[2] = molecular target: cGMP-specific 3',5'-cyclic phosphodiesterase (Homo sapiens, UniProt O76074); test: DRUGMATRIX: Phosphodiesterase PDE5 enzyme inhibition (substrate: [3H]cGMP + cGMP); assay type: tissue-based; details: platelet; Not Active = under 50% inhibition at 10 µM
Substance-P receptor = Substance-P receptor (Homo sapiens, UniProt P25103); assay type: cell membranes, Membrane; details: cho; note: in other assays of this panel Not Active means under 50% inhibition at 10 µM
[3] = molecular target: T1, Vasoactive intestinal polypeptide receptor 1 (Homo sapiens, UniProt P32241); assay type: cell membranes, Membrane; details: ht-29; note: in other assays of this panel Not Active means under 50% inhibition at 10 µM
T1 sequence (P32241 whole entry): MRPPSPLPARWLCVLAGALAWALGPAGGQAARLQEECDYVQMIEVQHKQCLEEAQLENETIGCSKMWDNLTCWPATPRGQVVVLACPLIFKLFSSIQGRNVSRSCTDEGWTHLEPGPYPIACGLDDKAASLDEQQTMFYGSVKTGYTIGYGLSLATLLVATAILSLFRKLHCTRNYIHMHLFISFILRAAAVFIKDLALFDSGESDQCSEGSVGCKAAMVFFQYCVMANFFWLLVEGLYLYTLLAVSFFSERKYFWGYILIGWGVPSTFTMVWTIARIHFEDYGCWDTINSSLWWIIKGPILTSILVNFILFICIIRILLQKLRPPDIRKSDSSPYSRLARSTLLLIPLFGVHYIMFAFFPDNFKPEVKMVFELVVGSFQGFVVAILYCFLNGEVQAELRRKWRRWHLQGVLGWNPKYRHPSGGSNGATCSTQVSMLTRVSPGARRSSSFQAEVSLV

Leukotriene C4 synthase = molecular target: T2, Leukotriene C4 synthase (Cavia porcellus, UniProt A6XA80); assay type: tissue-based, Lung;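 note: enzyme inhibition assay of leukotriene C4 synthase, using LTA4 as the substrate; in other assays of this panel Not Active means under 50% inhibition at 10 µM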
T2 sequence (A6XA80 whole entry): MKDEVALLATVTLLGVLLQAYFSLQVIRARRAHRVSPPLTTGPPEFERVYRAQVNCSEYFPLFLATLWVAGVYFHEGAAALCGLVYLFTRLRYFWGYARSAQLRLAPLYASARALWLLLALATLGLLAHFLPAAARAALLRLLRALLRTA

[4] = molecular target: Matrix metalloproteinase-9 (Homo sapiens, UniProt P14780); test: biochemical; assay type: cell-based;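 note: inhibition of isolated MMP-9 enzyme activity toward a synthetic peptide substrate, from the DrugMatrix protease screening panel; in other assays of this panel Not Active means under 50% inhibition at 10 µM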
[5] = molecular target: Tyrosine-protein kinase Lck (Homo sapiens, UniProt P06239); test: DRUGMATRIX: Protein Tyrosine Kinase, LCK enzyme inhibition (substrate: Poly(Glu:Tyr)); assay type: cell-based, Insect cells; details: insect cells; Not Active = under 50% inhibition at 10 µM
[6] = molecular target: T3, 3-hydroxy-3-methylglutaryl-coenzyme A reductase (Homo sapiens, UniProt P04035); parameters: species or system Escherichia coli
T3 sequence (P04035 whole entry): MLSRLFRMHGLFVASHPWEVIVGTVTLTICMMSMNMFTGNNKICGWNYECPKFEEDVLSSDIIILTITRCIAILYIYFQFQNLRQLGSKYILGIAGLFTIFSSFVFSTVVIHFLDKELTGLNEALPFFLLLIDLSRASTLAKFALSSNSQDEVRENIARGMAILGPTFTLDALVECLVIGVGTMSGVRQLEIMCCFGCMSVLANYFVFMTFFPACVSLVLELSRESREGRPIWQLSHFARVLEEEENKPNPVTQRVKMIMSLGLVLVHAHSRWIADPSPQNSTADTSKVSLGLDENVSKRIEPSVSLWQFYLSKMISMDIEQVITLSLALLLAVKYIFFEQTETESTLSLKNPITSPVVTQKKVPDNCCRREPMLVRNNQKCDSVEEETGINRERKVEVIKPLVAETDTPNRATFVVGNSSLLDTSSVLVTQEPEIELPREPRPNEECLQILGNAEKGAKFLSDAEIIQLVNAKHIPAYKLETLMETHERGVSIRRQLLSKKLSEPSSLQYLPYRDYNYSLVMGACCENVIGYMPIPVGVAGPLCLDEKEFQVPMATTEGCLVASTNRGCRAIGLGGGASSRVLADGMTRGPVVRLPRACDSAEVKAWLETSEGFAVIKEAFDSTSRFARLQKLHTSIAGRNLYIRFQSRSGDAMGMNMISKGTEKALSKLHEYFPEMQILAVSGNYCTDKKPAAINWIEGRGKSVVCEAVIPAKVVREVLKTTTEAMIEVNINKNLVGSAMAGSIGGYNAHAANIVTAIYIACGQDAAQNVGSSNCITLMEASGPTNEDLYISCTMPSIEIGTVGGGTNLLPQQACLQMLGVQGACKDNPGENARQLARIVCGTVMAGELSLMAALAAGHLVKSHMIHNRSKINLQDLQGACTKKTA

Chain of Beta-3 adrenergic receptor (P13945 whole entry): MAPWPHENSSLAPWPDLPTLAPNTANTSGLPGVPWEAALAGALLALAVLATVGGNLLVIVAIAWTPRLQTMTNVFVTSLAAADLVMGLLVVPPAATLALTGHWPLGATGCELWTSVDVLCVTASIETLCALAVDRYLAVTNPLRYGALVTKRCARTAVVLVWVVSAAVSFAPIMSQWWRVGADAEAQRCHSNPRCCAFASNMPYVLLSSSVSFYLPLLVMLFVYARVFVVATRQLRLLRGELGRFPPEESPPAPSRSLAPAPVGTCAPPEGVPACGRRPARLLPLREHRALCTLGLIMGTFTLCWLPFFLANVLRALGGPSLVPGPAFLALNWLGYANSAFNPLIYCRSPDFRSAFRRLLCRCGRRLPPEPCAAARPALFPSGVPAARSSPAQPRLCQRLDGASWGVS
Chain of Tyrosine-protein kinase Lck (P06239 whole entry): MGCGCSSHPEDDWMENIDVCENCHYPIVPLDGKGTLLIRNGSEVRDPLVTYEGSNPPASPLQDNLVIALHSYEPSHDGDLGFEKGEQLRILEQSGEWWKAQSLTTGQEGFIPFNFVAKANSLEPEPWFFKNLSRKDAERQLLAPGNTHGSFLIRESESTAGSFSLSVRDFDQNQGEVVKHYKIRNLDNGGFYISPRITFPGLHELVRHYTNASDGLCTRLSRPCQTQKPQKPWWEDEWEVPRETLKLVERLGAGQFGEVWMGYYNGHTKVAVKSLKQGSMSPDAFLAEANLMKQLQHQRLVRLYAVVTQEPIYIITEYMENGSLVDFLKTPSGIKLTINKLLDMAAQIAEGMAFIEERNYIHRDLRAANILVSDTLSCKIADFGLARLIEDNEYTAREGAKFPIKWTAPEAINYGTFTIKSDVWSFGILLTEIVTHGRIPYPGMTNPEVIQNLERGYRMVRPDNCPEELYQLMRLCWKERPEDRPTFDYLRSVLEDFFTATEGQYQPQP
Chain of Matrix metalloproteinase-9 (P14780 whole entry): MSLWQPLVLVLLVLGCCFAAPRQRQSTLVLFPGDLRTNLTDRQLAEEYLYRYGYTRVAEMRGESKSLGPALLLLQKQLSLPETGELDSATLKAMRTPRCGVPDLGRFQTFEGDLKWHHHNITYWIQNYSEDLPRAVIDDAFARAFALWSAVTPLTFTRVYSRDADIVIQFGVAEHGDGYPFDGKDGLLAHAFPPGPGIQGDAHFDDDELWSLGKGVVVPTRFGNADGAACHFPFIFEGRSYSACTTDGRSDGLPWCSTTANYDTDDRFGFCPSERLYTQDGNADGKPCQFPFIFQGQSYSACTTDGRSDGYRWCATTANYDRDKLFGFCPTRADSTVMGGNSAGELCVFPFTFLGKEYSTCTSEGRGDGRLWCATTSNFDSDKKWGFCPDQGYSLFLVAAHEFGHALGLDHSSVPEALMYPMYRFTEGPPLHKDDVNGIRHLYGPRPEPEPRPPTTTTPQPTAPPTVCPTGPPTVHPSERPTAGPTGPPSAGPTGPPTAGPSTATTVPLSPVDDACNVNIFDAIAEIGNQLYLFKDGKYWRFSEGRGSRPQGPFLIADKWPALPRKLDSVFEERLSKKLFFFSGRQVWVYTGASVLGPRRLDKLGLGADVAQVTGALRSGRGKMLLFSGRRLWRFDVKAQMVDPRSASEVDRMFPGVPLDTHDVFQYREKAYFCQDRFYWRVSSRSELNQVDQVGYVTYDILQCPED
Chain of Substance-P receptor (P25103 whole entry): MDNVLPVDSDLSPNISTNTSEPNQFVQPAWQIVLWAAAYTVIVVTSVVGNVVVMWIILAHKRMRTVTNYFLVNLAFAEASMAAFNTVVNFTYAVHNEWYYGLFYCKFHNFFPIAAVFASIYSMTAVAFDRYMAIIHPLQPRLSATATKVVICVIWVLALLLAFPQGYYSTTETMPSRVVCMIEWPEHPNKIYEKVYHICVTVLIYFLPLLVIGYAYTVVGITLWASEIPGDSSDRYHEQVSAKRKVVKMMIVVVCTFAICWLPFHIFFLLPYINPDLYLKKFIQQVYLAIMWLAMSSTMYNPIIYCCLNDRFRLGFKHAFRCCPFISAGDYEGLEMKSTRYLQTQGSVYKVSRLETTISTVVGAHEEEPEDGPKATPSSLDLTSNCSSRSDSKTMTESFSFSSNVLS

CCn1cc(C(=O)O)c(=O)c2cc(F)c(N3CCN(C)CC3)cc21 [PEFLOXACIN]
Not Active: IC50 [1] | IC50 [2] | IC50 (Substance-P receptor) | IC50 [3] | IC50 (Leukotriene C4 synthase) | IC50 [4] | IC50 [5] | IC50 [6]

CCCCOc1ccc(OCCCN2CCOCC2)cc1 [PRAMOXINE]
Not Active: IC50 [1] | IC50 [2] | IC50 (Substance-P receptor) | IC50 [3] | IC50 (Leukotriene C4 synthase) | IC50 [4] | IC50 [5] | IC50 [6]

O=C(C1CCCCC1)N1CC(=O)N2CCc3ccccc3C2C1 (stereo unspecified) [PRAZIQUANTEL]
Not Active: IC50 [1] | IC50 [2] | IC50 (Substance-P receptor) | IC50 [3] | IC50 (Leukotriene C4 synthase) | IC50 [4] | IC50 [5] | IC50 [6]

CCN(CC)CCOC(=O)c1ccc(N)cc1 [PROCAINE]
Not Active: IC50 [1] | IC50 [2] | IC50 (Substance-P receptor) | IC50 [3] | IC50 (Leukotriene C4 synthase) | IC50 [4] | IC50 [5] | IC50 [6]

CCCN(CCC)C(=O)C(CCC(=O)O)NC(=O)c1ccccc1 (stereo unspecified) [PROGLUMIDE]
Not Active: IC50 [1] | IC50 [2] | IC50 (Substance-P receptor) | IC50 [3] | IC50 (Leukotriene C4 synthase) | IC50 [4] | IC50 [5] | IC50 [6]

NC(=O)c1cnccn1 [PYRAZINAMIDE]
Not Active: IC50 [1] | IC50 [2] | IC50 (Substance-P receptor) | IC50 [3] | IC50 (Leukotriene C4 synthase) | IC50 [4] | IC50 [5] | IC50 [6]

OC(CCN1CCCCC1)(c1ccccc1)C1CCCCC1 (stereo unspecified) [TRIHEXYPHENIDYL]
Not Active: IC50 [1] | IC50 [2] | IC50 (Substance-P receptor) | IC50 [3] | IC50 (Leukotriene C4 synthase) | IC50 [4] | IC50 [5] | IC50 [6]

Cc1cc2cc3c(C)cc(=O)oc3c(C)c2o1 [TRIOXSALEN]
Not Active: IC50 [1] | IC50 [2] | IC50 (Substance-P receptor) | IC50 [3] | IC50 (Leukotriene C4 synthase) | IC50 [4] | IC50 [5] | IC50 [6]

CCCC(CCC)C(=O)O [VALPROIC ACID]
Not Active: IC50 [1] | IC50 [2] | IC50 (Substance-P receptor) | IC50 [3] | IC50 (Leukotriene C4 synthase) | IC50 [4] | IC50 [5] | IC50 [6]

CCC1=C[C@@H]2CN(C1)Cc1c([nH]c3ccccc13)[C@@](C(=O)OC)(c1cc3c(cc1OC)N(C)[C@H]1[C@@](O)(C(=O)OC)[C@H](OC(C)=O)[C@]4(CC)C=CCN5CC[C@]31[C@@H]54)C2 [VINORELBINE]
Not Active: IC50 [1] | IC50 [2] | IC50 (Substance-P receptor) | IC50 [3] | IC50 (Leukotriene C4 synthase) | IC50 [4] | IC50 [5] | IC50 [6]

CADMIUM DICHLORIDE
Not Active: IC50 [1] | Ki [1] | IC50 [2] | Ki [2] | IC50 (Substance-P receptor) | Ki (Substance-P receptor) | IC50 [3] | Ki [3] | IC50 (Leukotriene C4 synthase) | Ki (Leukotriene C4 synthase) | IC50 [4] | Ki [4] | IC50 [5] | Ki [5] | IC50 [6] | Ki [6]
